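The compound was tested at five concentrations on cells cultured in 96-well plates, with a 48-hour exposure period. The concentration for 50% growth inhibition is given as GI50.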 Active and inactive are the calls of the source. Rule as the data show it: active = GI50 up to about 1.1 µM and inactive = higher.
Legend:
Experiment in all cases: NCI-60 cell line screen, 48 h
XF498 = system: XF498
RXF 631 = system: RXF 631
M19-MEL = system: M19-MEL
DLD-1 = system: DLD-1
LXFL 529 = system: LXFL 529
DMS-273 = system: DMS-273
HOP-18 = system: HOP-18
SNB-78 = system: SNB-78
DMS-114 = system: DMS-114

Measured: GI50

COC(=O)C(C(=O)C(=O)Nc1ccccc1OC)c1csc(-n2nc(-c3ccccc3)cc2-c2ccccc2)n1 (centres undefined)
inactive: XF498 > 100 µM | RXF 631 > 100 µM | M19-MEL > 100 µM | DLD-1 > 100 µM | LXFL 529 > 100 µM | DMS-273 > 100 µM | HOP-18 14.8 µM | SNB-78 > 100 µM | DMS-114 49.5 µM

From ChEMBL document CHEMBL1201862, “PubChem BioAssay data set” (2004)
